In publication PMC7413254 (Nature Communications, 2020):
Values joined by “and” are separate entries in the source; they are usually repeats but may differ in a detail not shown here. Identical values can stand only once. Like-named read-outs stand apart in the source and are kept apart here.

Tests used:
PfNT1 = target: T1, PfNT1 (Plasmodium falciparum, UniProt Q8IDM6); assay: cell-based; type: cell-based; settings: SEM
T1 construct: expressed in transfected cells; host or cells: Xenopus laevis oocytes (stage V-VI), cRNA-injected
How it was run: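 Transport measured in Xenopus oocytes expressing the transporters, 1.5 h at 27.5 °C in ND96 pH 5.5 unless noted. For trans-stimulation, VF-6 injected in 25 nL ND96 at pH 5.0–7.0 or Na^+-free (choline) buffer; intracellular levels based on ~400 nL oocyte volume. Ten oocytes per treatment, ≥4 experiments.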

PfCRT [1] = assay: Influx of VF-6 via PfCRT into the oocyte, solutes tested as potential co-substrates; type: cell-based, Plasmodium falciparum; design: key: X: Compounds that have been tested as potential co-substrates but are not required for influx of VF-6 via PfCRT into the oocyte; settings: X marks the solute
non-expressing oocytes [2] = assay: cells; type: cell-based, Xenopus laevis; settings: for Uptake of [3H]CQ (% PfCRTDd2 control), cis-inhibition, non-expressing oocytes: SEM
How it was run: (§1)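 Radioactivity accumulated per oocyte, read by liquid scintillation after 10% SDS lysis, served as the uptake measure. Incubations ran 1.5 h at 27.5 °C in ND96 at pH 5.5, matching digestive-vacuole acidity.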

PfCRT^3D7 = PfCRT^3D7 (Plasmodium falciparum, UniProt Q8IBZ9); assay: cell-based; type: cell-based; settings: for Uptake of [3H]CQ (% PfCRTDd2 control), cis-inhibition, PfCRT3D7: SEM
Text: The orientation of PfCRT in the parasite’s DV membrane, and also in the oocyte plasma membrane, is such that its N- and C-termini extend into the cytosol. The oocytes were suspended in a reaction buffer adjusted to pH 5.5 to mimic the pH of the DV lumen[1],[2]. In this scenario, the transport of a substrate via PfCRT from the acidic extracellular solution into the oocyte cytosol[15] is analogous to the parasite’s PfCRT-mediated efflux of a substrate from the acidic DV and into the cytosol. Unless specified otherwise, this is the direction in which substrate transport was measured in the oocyte assays.
Unless specified otherwise, the transport assays were conducted over 1.5 h at 27.5 °C and the reaction buffer was ND96 (96 mM NaCl, 2 mM KCl, 1 mM MgCl2, 1.8 mM CaCl2, 10 mM MES and 10 mM Tris-base) at pH 5.5.
Ten oocytes were washed twice with the relevant ND96 buffer. […] The assay was terminated by removing the reaction buffer and washing the oocytes with ice-cold ND96 buffer. The oocytes were lysed in 10% (w/v) sodium dodecyl sulfate (SDS) and the radioactivity accumulated within each oocyte was measured with a MicroBeta^2 microplate liquid scintillation analyser (PerkinElmer).
At least four independent experiments were performed (on different days and using oocytes from different frogs), and within each experiment measurements were made from ten oocytes per treatment.

PfCRT [3] = assay: Test of solutes as potential co-substrates for influx of VF-6 via PfCRT into the oocyte; type: cell-based, Plasmodium falciparum; design: key: X: Compounds that have been tested as potential co-substrates but are not required for influx of VF-6 via PfCRT into the oocyte; settings: X = tested
PfCRT^Dd2 = PfCRT^Dd2 (Plasmodium falciparum, UniProt Q9N623, A220S/I356T/K76T/M74I/N326S/N75E/Q271E/R371I); assay: [3H]CQ uptake into Xenopus oocytes, cis-inhibition by unlabelled solute; type: cell-based; settings: for PfCRT-mediated [3H]CQ transport, cis-inhibition (% PfCRTDd2 control): PfCRTDd2 oocytes, background [3H]CQ accumulation subtracted, normalised to oocyte type control; for Uptake of [3H]CQ (% PfCRTDd2 control), cis-inhibition, PfCRTDd2: total [3H]CQ transport, mean ± SEM, SEM
How it was run: as §1

PfCRT^Ecu1110 = PfCRT^Ecu1110 (Plasmodium falciparum, UniProt Q9N623, A220S/I356L/K76T/N326D); assay: as above; type: cell-based; settings: for Uptake of [3H]CQ (% PfCRTEcu1110 control), cis-inhibition / PfCRT-mediated [3H]CQ transport, cis-inhibition (% PfCRTEcu1110 control): PfCRTEcu1110 oocytes; for Uptake of [3H]CQ (% PfCRTEcu1110 control), cis-inhibition / Uptake of [3H]CQ (% PfCRTDd2 control), cis-inhibition, PfCRTEcu1110: total [3H]CQ transport; for Uptake of [3H]CQ (% PfCRTEcu1110 control), cis-inhibition: normalised to the oocyte type control; for PfCRT-mediated [3H]CQ transport, cis-inhibition (% PfCRTEcu1110 control): background [3H]CQ accumulation subtracted, normalised to oocyte type control; for [3H]CQ transport (% PfCRTEcu1110 control), cis-inhibition, PfCRTEcu1110: PfCRT-mediated component (background subtracted), sheet title says normalised to PfCRTDd2 control; for [3H]CQ transport (% PfCRTEcu1110 control), cis-inhibition, PfCRTEcu1110 / Uptake of [3H]CQ (% PfCRTDd2 control), cis-inhibition, PfCRTEcu1110: mean ± SEM, SEM
How it was run: as §1

PfCRT [4] = assay: Potential co-substrates tested for influx of VF-6 via PfCRT into the oocyte; type: cell-based, Plasmodium falciparum; design: key: X: Compounds that have been tested as potential co-substrates but are not required for influx of VF-6 via PfCRT into the oocyte
non-expressing oocytes [5] = type: cell-based, Xenopus laevis; settings: SEM
How it was run: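 Oocytes (ten per treatment, ≥4 independent frogs/days) were preloaded by injecting VF-6 in 25 nL ND96 at pH 5.0, 5.5, 6.0 or 7.0, or Na^+-free choline buffer, then uptake run 1.5 h, 27.5 °C, ND96 pH 5.5 by default. Internal concentrations assumed ~400 nL oocyte volume.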

[6] = total [3H]CQ transport, [test solute] = 0.5 mM, mean ± SEM
[7] = total [3H]CQ transport, [test solute] = 1 mM, mean ± SEM
[8] = total [3H]CQ transport, [test solute] = 2 mM, mean ± SEM

Chain of PfCRT^Dd2 (Q9N623 whole entry A220S/I356T/K76T/M74I/N326S/N75E/Q271E/R371I): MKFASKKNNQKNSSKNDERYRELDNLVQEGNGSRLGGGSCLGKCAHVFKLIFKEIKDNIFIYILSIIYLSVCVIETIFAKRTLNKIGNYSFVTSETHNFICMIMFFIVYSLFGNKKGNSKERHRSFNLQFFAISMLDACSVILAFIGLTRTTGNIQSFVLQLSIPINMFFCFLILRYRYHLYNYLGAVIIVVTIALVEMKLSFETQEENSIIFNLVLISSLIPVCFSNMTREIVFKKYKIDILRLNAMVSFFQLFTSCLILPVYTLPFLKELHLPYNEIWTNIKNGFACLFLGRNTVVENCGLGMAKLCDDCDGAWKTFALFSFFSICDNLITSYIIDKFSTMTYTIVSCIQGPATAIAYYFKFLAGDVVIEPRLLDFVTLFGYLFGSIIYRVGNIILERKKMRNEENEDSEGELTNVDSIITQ
Chain of PfCRT^3D7 (Q8IBZ9 59-398): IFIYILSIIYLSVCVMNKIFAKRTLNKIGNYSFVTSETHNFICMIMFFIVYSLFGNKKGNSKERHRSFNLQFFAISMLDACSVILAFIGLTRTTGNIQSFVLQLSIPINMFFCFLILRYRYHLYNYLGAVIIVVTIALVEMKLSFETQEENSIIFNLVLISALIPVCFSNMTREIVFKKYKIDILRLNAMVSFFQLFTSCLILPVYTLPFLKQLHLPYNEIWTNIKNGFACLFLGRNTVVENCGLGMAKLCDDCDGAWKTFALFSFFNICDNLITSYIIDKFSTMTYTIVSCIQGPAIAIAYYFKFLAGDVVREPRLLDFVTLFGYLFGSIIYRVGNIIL
Chain of PfCRT^Ecu1110 (Q9N623 whole entry A220S/I356L/K76T/N326D): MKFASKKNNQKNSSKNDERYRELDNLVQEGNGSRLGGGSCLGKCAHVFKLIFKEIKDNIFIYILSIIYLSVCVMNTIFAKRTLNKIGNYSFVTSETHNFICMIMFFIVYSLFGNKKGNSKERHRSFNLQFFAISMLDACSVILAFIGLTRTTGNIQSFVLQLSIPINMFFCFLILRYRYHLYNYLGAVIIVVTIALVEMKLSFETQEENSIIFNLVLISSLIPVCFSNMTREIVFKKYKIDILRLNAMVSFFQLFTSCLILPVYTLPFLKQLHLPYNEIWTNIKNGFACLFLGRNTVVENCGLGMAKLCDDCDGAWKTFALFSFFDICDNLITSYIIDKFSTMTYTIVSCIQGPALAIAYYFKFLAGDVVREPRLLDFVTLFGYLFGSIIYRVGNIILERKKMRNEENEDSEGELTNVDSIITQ
T1 sequence (Q8IDM6 whole entry): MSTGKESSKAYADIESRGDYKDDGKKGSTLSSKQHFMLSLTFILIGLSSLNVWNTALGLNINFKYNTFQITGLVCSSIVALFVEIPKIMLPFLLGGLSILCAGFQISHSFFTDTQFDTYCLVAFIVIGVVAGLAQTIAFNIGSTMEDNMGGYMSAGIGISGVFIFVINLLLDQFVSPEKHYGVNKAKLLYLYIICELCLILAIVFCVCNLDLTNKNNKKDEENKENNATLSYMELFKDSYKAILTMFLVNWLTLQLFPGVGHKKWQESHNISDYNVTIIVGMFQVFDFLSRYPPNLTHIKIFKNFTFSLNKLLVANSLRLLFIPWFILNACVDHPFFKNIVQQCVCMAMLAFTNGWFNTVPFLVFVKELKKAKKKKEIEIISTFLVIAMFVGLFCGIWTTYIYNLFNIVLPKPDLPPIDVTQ

SMILES | Uptake of [3H]CQ (% PfCRTDd2 control), trans-stimulation, PfNT1 (PfNT1) [% PfCRTDd2 control] | Compounds that have been tested as potential co-substrates but are not required for influx of VF-6 via PfCRT into the oocyte (PfCRT [1]) | Tested as potential co-substrate but not required for influx of VF-6 via PfCRT into the oocyte (PfCRT [3]) | PfCRT-mediated [3H]CQ transport, cis-inhibition (% PfCRTDd2 control) (PfCRT^Dd2; [test solute] = 1 mM) | PfCRT-mediated [3H]CQ transport, cis-inhibition (% PfCRTDd2 control) (PfCRT^Dd2; [test solute] = 2 mM) | Uptake of [3H]CQ (% PfCRTDd2 control), cis-inhibition, PfCRTDd2 (PfCRT^Dd2; [test solute] = 0.5 mM) [% PfCRTDd2 control] | Uptake of [3H]CQ (% PfCRTDd2 control), cis-inhibition, PfCRTDd2 (PfCRT^Dd2; [test solute] = 2 mM) [% PfCRTDd2 control] | Uptake of [3H]CQ (% PfCRTEcu1110 control), cis-inhibition (PfCRT^Ecu1110; [test solute] = 0.5 mM) [% PfCRTEcu1110 control] | Uptake of [3H]CQ (% PfCRTEcu1110 control), cis-inhibition (PfCRT^Ecu1110; [test solute] = 1 mM) [% PfCRTEcu1110 control] | PfCRT-mediated [3H]CQ transport, cis-inhibition (% PfCRTEcu1110 control) (PfCRT^Ecu1110; [test solute] = 0.5 mM) | [3H]CQ transport (% PfCRTEcu1110 control), cis-inhibition, PfCRTEcu1110 (PfCRT^Ecu1110; [test solute] = 0.5 mM) [% PfCRTEcu1110 control] | [3H]CQ transport (% PfCRTEcu1110 control), cis-inhibition, PfCRTEcu1110 (PfCRT^Ecu1110; [test solute] = 2 mM) [% PfCRTEcu1110 control] | Uptake of [3H]CQ (% PfCRTDd2 control), cis-inhibition, PfCRTEcu1110 (PfCRT^Ecu1110; [test solute] = 0.5 mM) [% PfCRTDd2 control] | Uptake of [3H]CQ (% PfCRTDd2 control), cis-inhibition, PfCRTEcu1110 (PfCRT^Ecu1110; [test solute] = 1 mM) [% PfCRTDd2 control] | Tested as potential co-substrate but not required for influx of VF-6 via PfCRT into the oocyte (PfCRT [4]) | also measured
N[C@@H](CC(=O)O)C(=O)O [L-aspartatic acid] | 2.4 ± 0.08 | X | X | 87 ± 6.1 | 73 ± 3.7 | 93 ± 3.6 | 75 ± 4.6 | 94 ± 4.5 | 90 ± 3.6 | 92 ± 1.4 | 28 ± 0.7 | 24 ± 0.1 | 31 ± 1.5 | 30 ± 1.4 | X | Uptake of [3H]CQ (% non-expressing oocyte control), cis-inhibition (non-expressing oocytes [2]; non-expressing oocytes, [test solute] = 0.5 mM, total [3H]CQ transport, normalised to the oocyte type control): 101 ± 4.8 % non-expressing oocyte control; Uptake of [3H]CQ (% non-expressing oocyte control), cis-inhibition (non-expressing oocytes [2]; non-expressing oocytes, [test solute] = 1 mM, total [3H]CQ transport, normalised to the oocyte type control): 97 ± 6.3 % non-expressing oocyte control; Uptake of [3H]CQ (% non-expressing oocyte control), cis-inhibition (non-expressing oocytes [2]; non-expressing oocytes, [test solute] = 2 mM, total [3H]CQ transport, normalised to the oocyte type control): 100 ± 4.6 % non-expressing oocyte control; Uptake of [3H]CQ (% PfCRTDd2 control), cis-inhibition, non-expressing oocytes (non-expressing oocytes [2]; [6]): 3.9 ± 0.03 % PfCRTDd2 control; Uptake of [3H]CQ (% PfCRTDd2 control), cis-inhibition, non-expressing oocytes (non-expressing oocytes [2]; [7]): 3.2 ± 0.08 % PfCRTDd2 control; Uptake of [3H]CQ (% PfCRTDd2 control), cis-inhibition, non-expressing oocytes (non-expressing oocytes [2]; [8]): 3.4 ± 0.1 % PfCRTDd2 control; Uptake of [3H]CQ (% PfCRT3D7 control), cis-inhibition (PfCRT^3D7; PfCRT3D7 oocytes, [test solute] = 2 mM, total [3H]CQ transport, normalised to the oocyte type control): 100 ± 3.5 % PfCRT3D7 control; Uptake of [3H]CQ (% PfCRTDd2 control), cis-inhibition, PfCRT3D7 (PfCRT^3D7; [6]): 3.1 ± 0.07 % PfCRTDd2 control; Uptake of [3H]CQ (% PfCRTDd2 control), cis-inhibition, PfCRT3D7 (PfCRT^3D7; [7]): 2.6 ± 0.08 % PfCRTDd2 control; Uptake of [3H]CQ (% PfCRTDd2 control), cis-inhibition, PfCRT3D7 (PfCRT^3D7; [8]): 2.2 ± 0.06 % PfCRTDd2 control; PfCRT-mediated [3H]CQ transport, cis-inhibition (% PfCRTDd2 control) (PfCRT^Dd2; [test solute] = 0.5 mM): 90 ± 5.7 % PfCRTDd2 control; Uptake of [3H]CQ (% PfCRTDd2 control), cis-inhibition, PfCRTDd2 (PfCRT^Dd2; [test solute] = 1 mM): 89 ± 5.2 % PfCRTDd2 control; Uptake of [3H]CQ (% PfCRTEcu1110 control), cis-inhibition (PfCRT^Ecu1110; [test solute] = 2 mM): 83 ± 4.3 % PfCRTEcu1110 control; PfCRT-mediated [3H]CQ transport, cis-inhibition (% PfCRTEcu1110 control) (PfCRT^Ecu1110; [test solute] = 1 mM): 88 ± 2.7 % PfCRTEcu1110 control; PfCRT-mediated [3H]CQ transport, cis-inhibition (% PfCRTEcu1110 control) (PfCRT^Ecu1110; [test solute] = 2 mM): 80 ± 1.3 % PfCRTEcu1110 control; Uptake of [3H]CQ (% PfCRTDd2 control), cis-inhibition, PfCRTEcu1110 (PfCRT^Ecu1110; [test solute] = 2 mM): 27 ± 1.0 % PfCRTDd2 control
NCC(=O)O [L-glycine] | 2.9 ± 0.03 | X | X | 94 ± 3.7 | 93 ± 3.1 | 97 ± 3.3 | 95 ± 3.6 | 95 ± 4.2 | 100 ± 3.2 | 94 ± 5.1 | 28 ± 0.5 | 29 ± 0.4 | 31 ± 1.5 | 33 ± 1.0 | X | Uptake of [3H]CQ (% non-expressing oocyte control), cis-inhibition (non-expressing oocytes [2]): 100 ± 4.6 % non-expressing oocyte control and 98 ± 7.4 % non-expressing oocyte control and 100 ± 3.5 % non-expressing oocyte control; Uptake of [3H]CQ (% PfCRTDd2 control), cis-inhibition, non-expressing oocytes (non-expressing oocytes [2]): 3.1 ± 0.09 % PfCRTDd2 control and 2.2 ± 0.03 % PfCRTDd2 control and 2.7 ± 0.03 % PfCRTDd2 control; Uptake of [3H]CQ (% PfCRTDd2 control), trans-stimulation, non-expressing oocytes (non-expressing oocytes [5]): 2.8 ± 0.05 % PfCRTDd2 control; Uptake of [3H]CQ (% PfCRT3D7 control), cis-inhibition (PfCRT^3D7): 100 ± 3.6 % PfCRT3D7 control and 100 ± 4.8 % PfCRT3D7 control; Uptake of [3H]CQ (% PfCRTDd2 control), cis-inhibition, PfCRT3D7 (PfCRT^3D7): 3.6 ± 0.07 % PfCRTDd2 control and 2.1 ± 0.01 % PfCRTDd2 control and 2.9 ± 0.04 % PfCRTDd2 control; [3H]CQ transport (% PfCRTEcu1110 control), cis-inhibition, PfCRTEcu1110 (PfCRT^Ecu1110; [test solute] = 1 mM): 30 ± 0.5 % PfCRTEcu1110 control
